# Experimental data taken from patent US6653339B2, “Method of treating irritable bowel syndrome” (Pfizer Inc., priority 2001, dated 2003).
# System: irritable bowel syndrome
# Assay: Clinical Study 1, controlled (slow) release darifenacin once daily vs placebo in irritable bowel syndrome
# Assay type: in vivo, human
# Details: for Constipation % of patients reporting AEs corrected for placebo / Dry Mouth % of patients reporting AEs corrected for placebo / Global Rating % Reduction from baseline corrected for placebo / Loose Stool % Reduction from baseline corrected for placebo / Pain Score % Reduction from baseline corrected for placebo / Total AE % of patients reporting AEs corrected for placebo / Urgency % Reduction from baseline corrected for placebo / Vision % of patients reporting AEs corrected for placebo / Constipation % of patients reporting AEs / Dry Mouth % of patients reporting AEs / Global Rating % Reduction from baseline / Loose Stool % Reduction from baseline / Pain Score % Reduction from baseline / Total AE % of patients reporting AEs / Urgency % Reduction from baseline / Vision % of patients reporting AEs: Clinical Study 1, 12 weeks; for Constipation % of patients reporting AEs / Dry Mouth % of patients reporting AEs / Global Rating % Reduction from baseline / Loose Stool % Reduction from baseline / Pain Score % Reduction from baseline / Total AE % of patients reporting AEs / Urgency % Reduction from baseline / Vision % of patients reporting AEs: uncorrected
# Description: The invention may be illustrated by the following clinical studies wherein the treatment of irritable bowel syndrome using darifenacin administered as a once-daily controlled (slow) release formulation in accordance with the prior art is compared with treatment using darifenacin administered as a thrice daily immediate release formulation in accordance with the present invention. Specifically, Clinical Studies 1 and 2 used controlled (slow) release formulations of darifenacin administered once daily (od) and Clinical Study 3 used an immediate release formulation of darifenacin administered three times daily (tid).
# During each clinical study, four efficacy measures of irritable bowel syndrome severity were measured, viz. ‘Pain Score’ (Average daily pain score, a composite of severity and number of days of pain), ‘Loose Stool’ (Number of days on which loose or watery stool occurred), ‘Urgency’ (Number of days on which urgency occured) and so-called ‘Global Rating’ (Patient rating of their condition taking into account all symptoms, 0=no problems). Adverse events (AE) such as constipation, dry mouth and visual abnormalities were also recorded.
# Clinical Study 1 was a multi-centre, double-blind, randomised, placebo-controlled parallel group study in which three dose strengths of darifenacin of 3.75 mg, 7.5 mg and 15 mg dosed od were compared with placebo. Treatment lasted 12 weeks following a 2-week run-in period.
# The controlled (slow) release dosage forms of darifenacin used in Clinical Studies 1 and 2 were 3.75 mg, 7.5 mg, 15.0 mg and 30.0 mg tablets having the following compositions: […]
# [1] = controlled release tablet 3.75 mg od
# [2] = controlled release tablet 7.5 mg od
# [3] = controlled release tablet 15 mg od
# [4] = both controlled release od studies (Clinical Studies 1 and 2)
compound,measurement,setting,value
NC(=O)C(c1ccccc1)(c1ccccc1)[C@@H]1CCN(CCc2ccc3c(c2)CCO3)C1 [darifenacin],Constipation % of patients reporting AEs corrected for placebo,[1],1.4%
same,Dry Mouth % of patients reporting AEs corrected for placebo,[1],2.5%
same,Global Rating % Reduction from baseline corrected for placebo,[1],−2%
same,Loose Stool % Reduction from baseline corrected for placebo,[1],4%
same,Pain Score % Reduction from baseline corrected for placebo,[1],−3%
same,Total AE % of patients reporting AEs corrected for placebo,[1],2%
same,Urgency % Reduction from baseline corrected for placebo,[1],18%
same,Vision % of patients reporting AEs corrected for placebo,[1],5.4%
same,Constipation % of patients reporting AEs,[1],7.2%
same,Dry Mouth % of patients reporting AEs,[1],10.2%
same,Global Rating % Reduction from baseline,[1],27%
same,Loose Stool % Reduction from baseline,[1],37%
same,Pain Score % Reduction from baseline,[1],35%
same,Total AE % of patients reporting AEs,[1],27%
same,Urgency % Reduction from baseline,[1],41%
same,Vision % of patients reporting AEs,[1],5.4%
same,Constipation % of patients reporting AEs corrected for placebo,[2],4.7%
same,Dry Mouth % of patients reporting AEs corrected for placebo,[2],6.5%
same,Global Rating % Reduction from baseline corrected for placebo,[2],0%
same,Loose Stool % Reduction from baseline corrected for placebo,[2],4%
same,Pain Score % Reduction from baseline corrected for placebo,[2],5%
same,Total AE % of patients reporting AEs corrected for placebo,[2],3%
same,Urgency % Reduction from baseline corrected for placebo,[2],17%
same,Vision % of patients reporting AEs corrected for placebo,[2],4.3%
same,Constipation % of patients reporting AEs,[2],10.5%
same,Dry Mouth % of patients reporting AEs,[2],14.2%
same,Global Rating % Reduction from baseline,[2],29%
same,Loose Stool % Reduction from baseline,[2],37%
same,Pain Score % Reduction from baseline,[2],43%
same,Total AE % of patients reporting AEs,[2],28%
same,Urgency % Reduction from baseline,[2],40%
same,Vision % of patients reporting AEs,[2],4.3%
same,Constipation % of patients reporting AEs corrected for placebo,[3],9.4%
same,Dry Mouth % of patients reporting AEs corrected for placebo,[3],20.8%
same,Global Rating % Reduction from baseline corrected for placebo,[3],2%
same,Loose Stool % Reduction from baseline corrected for placebo,[3],14%
same,Pain Score % Reduction from baseline corrected for placebo,[3],1%
same,Total AE % of patients reporting AEs corrected for placebo,[3],15%
same,Urgency % Reduction from baseline corrected for placebo,[3],27%
same,Vision % of patients reporting AEs corrected for placebo,[3],3.3%
same,Constipation % of patients reporting AEs,[3],15.2%
same,Dry Mouth % of patients reporting AEs,[3],28.5%
same,Global Rating % Reduction from baseline,[3],31%
same,Loose Stool % Reduction from baseline,[3],47%
same,Pain Score % Reduction from baseline,[3],39%
same,Total AE % of patients reporting AEs,[3],40%
same,Urgency % Reduction from baseline,[3],50%
same,Vision % of patients reporting AEs,[3],3.3%
same,key measures of Pain Score and Global Rating,[4],no effects were seen
same,number of adverse effects,[4],marked increase with dose
same,efficacy measures of Loose Stool and Urgency,"both controlled release od studies (Clinical Studies 1 and 2), higher doses",improvements
